{
  "source": "patent US20250034170A1",
  "about": "“SMALL MOLECULE MODULATORS OF GLUCOCEREBROSIDASE ACTIVITY AND USES THEREOF” (Vanqua Bio, Inc., priority 2021, published 2025)",
  "data": [
    {"molecular_target": "T1, GCase (Homo sapiens, UniProt P04062)", "T1 construct": "endogenous in cells; host or cells: HeLa cells", "T1 sequence (P04062 40-536)": "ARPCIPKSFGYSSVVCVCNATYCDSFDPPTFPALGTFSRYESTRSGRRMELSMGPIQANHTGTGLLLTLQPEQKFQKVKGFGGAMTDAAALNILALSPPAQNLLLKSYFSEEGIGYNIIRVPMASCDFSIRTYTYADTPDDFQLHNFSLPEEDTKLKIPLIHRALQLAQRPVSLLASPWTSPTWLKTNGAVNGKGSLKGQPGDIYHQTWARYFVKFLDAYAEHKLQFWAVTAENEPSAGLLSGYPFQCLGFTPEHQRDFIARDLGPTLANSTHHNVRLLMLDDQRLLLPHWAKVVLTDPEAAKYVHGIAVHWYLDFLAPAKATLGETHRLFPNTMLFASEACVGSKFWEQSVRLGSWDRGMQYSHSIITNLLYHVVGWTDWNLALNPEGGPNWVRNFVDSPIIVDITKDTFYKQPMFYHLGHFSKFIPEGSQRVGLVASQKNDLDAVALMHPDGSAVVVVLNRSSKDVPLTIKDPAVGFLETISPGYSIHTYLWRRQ", "assay": "activation of GCase in a live cell PFB assay in HELA cells", "assay_type": "cell-based", "conditions": "EC50 given as range classes", "experimental": "Exemplary compounds were evaluated for activation of GCase in a live cell PFB assay in HELA cells (essentially as described in Ysselstein et al., “LRRK2 kinase activity regulates lysosomal glucocerebrosidase in neurons derived from Parkinson's disease patients” Nature Communications (2019) 10:5570). […] EC50 ranges: A: <10 μM; B: >10-50 μM; C: >50-100 μM; D: >100 μM.", "units": {"EC50": "µM"}, "values": [
      {"smiles": "FC(F)Cn1ncc2ncc(N3CCC4(CN(c5cc(C(F)(F)F)ccn5)C4)C3)nc21", "note": "[Compound 187, 6-[1-(2,2-difluoroethyl)-1H-pyrazolo[3,4-b]pyrazin-6-yl]-2-[4-(trifluoromethyl)pyridin-2-yl]-2,6-diazaspiro[3.4]octane]", "EC50": "10 to 50"},
      {"smiles": "FC(F)Cn1ncc2ncc(N3CCC4(CCCN4c4ccnc(C(F)(F)F)c4)C3)nc21", "note": "(stereo not shown) [Compound 188, 7-[1-(2,2-difluoroethyl)-1H-pyrazolo[3,4-b]pyrazin-6-yl]-1-[2-(trifluoromethyl)pyridin-4-yl]-1,7-diazaspiro[4.4]nonane]", "EC50": "> 100"},
      {"smiles": "FC(F)Cn1ncc2ncc(NC3CCC4(C3)CN(c3ccc(C(F)(F)F)nc3)C4)nc21", "note": "(stereo not shown) [Compound 189, N-[1-(2,2-difluoroethyl)-1H-pyrazolo[3,4-b]pyrazin-6-yl]-2-[6-(trifluoromethyl)pyridin-3-yl]-2-azaspiro[3.4]octan-6-amine]", "EC50": "< 10"},
      {"smiles": "FC(F)Cn1ncc2ncc(NC3CCC4(C3)CN(c3cc(C(F)(F)F)ccn3)C4)nc21", "note": "(stereo not shown) [Compound 190, N-[1-(2,2-difluoroethyl)-1H-pyrazolo[3,4-b]pyrazin-6-yl]-2-[4-(trifluoromethyl)pyridin-2-yl]-2-azaspiro[3.4]octan-6-amine]", "EC50": "< 10"}
    ]}
  ]
}
